Test results as given in patent US20230390250A1, “MODULATION OF GLUCAGON-LIKE PEPTIDE 1 AND USES THEREOF” (priority 2020, published 2023).
Entries after “also recorded” stand apart in the source; their conditions may differ. Like-named read-outs stand apart in the source and are kept apart here.

How the values were obtained:
GLUTag cells = experiment: GLP-1 secretion from cultured GLUTag cells treated with LPA and/or LPAR antagonist; format: cell-based, mouse; details: for effect of LPAR antagonist alone on GLP-1 levels: 10 μM antagonist alone, 2 h; for rescue of LPA-inhibited GLP-1 secretion by LPAR antagonist: 10 μM antagonist plus 2.5 μM LPA; for decrease in GLP-1 secretion / level caused by LPA (fraction): 2-2.5 h
Procedure: We have grown GLUTag cells in culture to test effects of various LPA species and the LPAR 1/2/3 inhibitor Ki-16425. GLUTag cells are a well characterized L-cell line derived from a mouse intestinal tumour, which have been widely used to study the regulation of GLP-1. Briefly, GLUTag cells were grown until 80-90% confluent. Complete medium, containing fetal bovine serum, was replaced with medium containing charcoal[…] dextran treated serum, which removes lipids and hormones that could interfere with testing. […] This indicates a direct inhibitory effect of LPA at physiologically relevant levels on GLP-1 secretion by L-cells, and the ability of a commercially available LPAR antagonist to prevent this.
Experimental Protocol. Briefly, GLUTag cells were grown until 70-80% confluent. Complete medium (low glucose DMEM), containing fetal bovine serum, was replaced with medium containing charcoal-dextran treated serum, which removes lipids and hormones that could interfere with testing. Cells were then treated with medium containing either DMSO as vehicle control (0.1% v/v), 2.5 μM LPA, 10 μM LPAR antagonist, or a combination of the LPA species and inhibitors. For cells treated with both LPA plus LPAR inhibitor: cells were pre-treated with LPA for 30 minutes and then 10 uM LPAR inhibitor was added to the respective wells for a further 2 hours. For cells treated with LPA only, or vehicle only, the total treatment time was 2.5 hours. For cells treated with antagonist only, the treatment time was 2 hours.

GLP-1 = experiment: Circulating GLP-1 in mice injected with LPA, with or without LPAR antagonist pre-treatment; format: in vivo; details: for rescue of the fall in blood GLP-1 levels caused by LPA: serum at 30 min (Examples 6, 8); for blood GLP-1 with antagonist alone versus vehicles: no LPA; for effect of LPA on circulating GLP-1 levels (words) / decrease in plasma GLP-1 levels after LPA injection: 50 mg/kg i.p.; for effect of LPA on circulating GLP-1 levels (words): mice; for decrease in plasma GLP-1 levels after LPA injection: 30 minutes later, n=3 (Example 3, FIG. 4)
Procedure: We injected mice i.p. with vehicle (10% DMSO in isotonic saline) or 50 mg/kg of 1-oleoyl-2-hydroxy-LPA. Half of the mice injected with LPA were pre-injected with 5 mg/kg Ki-16425 10 minutes prior to receiving LPA. Thirty minutes later, samples of blood were taken by cardiac puncture, and circulating active GLP-1 levels in plasma were analysed by enzyme linked immunosorbent assay.
(§1) The experimental protocol was as follows: • 1. Mice were administered an LPAR antagonist drug, either by oral gavage (for BMS986020, SARI 00842, AM966, AM095, or H2L51863030), or by i.p. injection (for Ki-16425, and LPA2-antagonistl) at the doses indicated in the table below. • 2. Control mice were administered only the vehicle (a 10% DMSO solution) given via the same route as the comparison drug was administered. • 3. Ten minutes later, mice were injected i.p. either with isotonic saline, or with 50 mg/kg LPA. • 4. Thirty minutes later, mice were euthanized by cervical dyslocation, and blood was collected from the heart for preparation of serum that was stored at −80C until it was analyzed for total GLP-1 concentration by ELISA assay using a GLP-1 enzyme immunoassay kit.

LPAR1 [1] = target: T1, LPAR1 (Homo sapiens, UniProt Q92633); details: cited from earlier work
Target sequence in this assay (Q92633 whole entry, species assumed): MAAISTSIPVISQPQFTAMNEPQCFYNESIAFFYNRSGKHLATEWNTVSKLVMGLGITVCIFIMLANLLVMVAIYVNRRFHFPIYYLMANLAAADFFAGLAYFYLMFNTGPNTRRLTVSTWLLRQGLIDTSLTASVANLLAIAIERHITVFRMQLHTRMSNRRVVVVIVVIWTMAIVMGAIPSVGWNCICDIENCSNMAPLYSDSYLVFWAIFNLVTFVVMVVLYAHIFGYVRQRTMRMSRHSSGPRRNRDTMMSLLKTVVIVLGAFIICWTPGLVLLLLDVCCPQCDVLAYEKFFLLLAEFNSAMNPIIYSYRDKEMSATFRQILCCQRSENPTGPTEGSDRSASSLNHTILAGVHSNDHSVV

LPAR2 = LPAR2 (Homo sapiens, UniProt Q9HBW0); details: cited from earlier work
LPAR3 = target: T2, LPAR3 (Homo sapiens, UniProt Q9UBY5); details: cited from earlier work
T2 sequence (Q9UBY5 1-353): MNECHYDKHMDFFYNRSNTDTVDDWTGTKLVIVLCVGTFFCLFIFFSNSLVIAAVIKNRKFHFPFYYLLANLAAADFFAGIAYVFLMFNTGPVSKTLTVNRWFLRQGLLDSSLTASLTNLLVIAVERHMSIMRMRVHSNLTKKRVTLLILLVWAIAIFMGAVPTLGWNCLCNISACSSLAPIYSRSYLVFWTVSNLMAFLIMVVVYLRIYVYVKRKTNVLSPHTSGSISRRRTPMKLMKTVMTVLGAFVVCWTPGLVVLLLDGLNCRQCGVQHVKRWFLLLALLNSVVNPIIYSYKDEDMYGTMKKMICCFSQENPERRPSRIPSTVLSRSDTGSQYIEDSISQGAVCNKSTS

DPP4 [2] = experiment: DPP4 activity in GLUTag cells (fluorometric kit ab204722); format: cell-based, mouse
Procedure: Briefly, GLUTag cells were grown to produce the recommended quantity needed for the assay according to the manufacturer's protocol (ab204722 Dipeptidyl peptidase IV Activity Assay Kit (Fluorometric)), and then the wells were treated in media containing charcoal-stripped FBS (10%), with either nothing (no treatment control), or vehicle control (0.05% DMSO), or 2.5 uM 18:1-LPA for 30 minutes, and then the inhibitors (as indicated in the graph of FIG. 17) were added to the vehicle wells and the 2.5 uM 18:1-LPA wells at 10 uM concentrations, as indicated on the graph (FIG. 17), for an additional 2 hours. Cells were then harvested according to the manufacturer's protocol, and lysed using reagents from the kit. Charcoal-stripped FBS was used to remove lipids, including LPA, from serum. Experiments were also carried out wherein the FBS was not stripped with charcoal, and the results were not different.
According to the manufacturer, dipeptidyl peptidase IV (DPP4) Activity Assay Kit (Fluorometric) (ab204722) is an assay where DPP4 cleaves a substrate to release a quenched fluorescent group, AMC (7-Amino-4-Methyl Coumarin), which can be easily detected at Ex/Em=360/460 nm. This assay is rapid, simple, sensitive, and reliable, as well as, suitable for high throughput activity screening of DPP4. This kit detects DPP4 activity as low as 3 ρU per well.

DPP4 [3] = experiment: DPP4 activity in serum of C57BI/6J mice; format: in vivo
LPAR1 [4] = target: T1, LPAR1; design: expressed in transfected cells; host or cells: CHO cells; details: LPA-induced calcium response, CHO cells with LPAR1; cited from earlier work
Target sequence in this assay (Q92633 whole entry): as the sequence (Q92633 whole entry, species assumed) above

DPP4 [5] = experiment: DPP4 activity in serum of C57BI/6J mice; format: in vivo; details: 50 mg/kg 18:1-LPA i.p., serum 30 minutes later
Procedure: Mice were injected with 5 mg/kg Ki16425 or control (10% DMSO in isotonic saline), then injected 10 mins later with 50 mg/kg 1-18:1-LPA or saline (vehicle control), then euthanized 30 minutes later for serum collection and analysis.
as §1, with “(for” for “(for BMS986020,”, “00842” for “00842, AM966, AM095,”, “AM966),” for “H2L51863030),”, “Ki-16425)” for “Ki-16425, and LPA2-antagonistl)”, “18:1-LPA.” for “LPA.”

insulin secretion = details: prior study, Rancoule et al. 2013; cited from earlier work
[6] = antagonist 30 mg/kg by gavage 10 min before 50 mg/kg 18:1-LPA i.p.

Sequence of LPAR2 (Q9HBW0 whole entry, species assumed): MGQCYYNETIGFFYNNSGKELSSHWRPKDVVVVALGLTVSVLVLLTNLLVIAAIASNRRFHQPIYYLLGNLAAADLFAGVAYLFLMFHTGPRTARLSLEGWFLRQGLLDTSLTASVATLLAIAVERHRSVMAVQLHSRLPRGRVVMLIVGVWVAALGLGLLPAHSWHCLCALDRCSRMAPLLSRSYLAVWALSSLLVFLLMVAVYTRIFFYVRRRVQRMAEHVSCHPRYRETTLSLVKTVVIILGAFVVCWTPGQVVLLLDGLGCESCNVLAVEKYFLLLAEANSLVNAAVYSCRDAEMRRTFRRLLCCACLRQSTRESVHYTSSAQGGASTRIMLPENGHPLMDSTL

Cc1csc2c(N[C@@H](C)CN3CCN(S(=O)(=O)c4ccc(Cl)c(Cl)c4)CC3)ncnc12 [LPA2-antagonist 1]
effect of LPAR antagonist alone on GLP-1 levels (GLUTag cells): no significant effect
effect of LPAR antagonist alone on GLP-1 levels (GLUTag cells; listed as LPA2-antagonist): did not significantly reduce
rescue of LPA-inhibited GLP-1 secretion by LPAR antagonist (GLUTag cells): complete rescue
rescue of LPA-inhibited GLP-1 secretion by LPAR antagonist (GLUTag cells; listed as LPA2-antagonist): significantly increased
rescue of the fall in blood GLP-1 levels caused by LPA (GLP-1; antagonist 5 mg/kg i.p. 10 min before 50 mg/kg 18:1-LPA i.p.): lack of rescue
rescue of the fall in blood GLP-1 levels caused by LPA (GLP-1; antagonist 5 mg/kg i.p. 10 min before 50 mg/kg 18:1-LPA i.p., listed as LPA2-antagonist): did not significantly rescue
blood GLP-1 with antagonist alone versus vehicles (GLP-1; antagonist 5 mg/kg i.p.): slightly, but significantly lower
IC50 (LPAR1 [1]; read-out: IC50 for LPAR1): > 50000 nM
IC50 (LPAR1 [1]; read-out: IC50 with LPAR1): > 50000 nM
IC50 (LPAR2): 17 nM
IC50 (LPAR3; read-out: IC50 for LPAR3): > 50000 nM
IC50 (LPAR3; read-out: IC50 with LPAR3): > 50000 nM

O=C(O)/C=C\C(=O)Nc1ccc(Oc2cccc(Oc3ccc(NC(=O)/C=C\C(=O)O)cc3)c2)cc1 [H2L5186303]
effect of LPAR antagonist alone on GLP-1 levels (GLUTag cells): no significant effect; also recorded: did not significantly affect
rescue of LPA-inhibited GLP-1 secretion by LPAR antagonist (GLUTag cells): partially rescued
rescue of the fall in blood GLP-1 levels caused by LPA (GLP-1; [6]): partially rescued; also recorded: partial rescue
blood GLP-1 with antagonist alone versus vehicles (GLP-1; antagonist 30 mg/kg by gavage): slightly, but significantly lower
Ki (LPAR1 [1]): 27000 nM
IC50 (LPAR1 [1]; read-out: IC50 for LPAR1): 27400 nM
IC50 (LPAR2): 8.9 nM
Ki (LPAR2): 8.9 nM
Ki (LPAR3): ~5000 nM
IC50 (LPAR3; read-out: IC50 for LPAR3): 4500 nM

COc1ccc(C(=O)NC2(C(=O)O)Cc3ccccc3C2)cc1OCCc1cccc(C)c1 [SAR100842]
rescue of the fall in blood GLP-1 levels caused by LPA (GLP-1; [6]): completely abrogated; also recorded: Complete rescues; also recorded: restored to normal levels
blood GLP-1 with antagonist alone versus vehicles (GLP-1; antagonist 30 mg/kg by gavage): indistinguishable from mice treated only with the vehicles
effect of 18:1-LPA combined with LPAR antagonist on DPP4 activity in GLUTag cells (DPP4 [2]; 2.5 uM 18:1-LPA 30 minutes, then 10 uM antagonist 2 hours): did not significantly affect
effect of LPAR antagonist alone on DPP4 activity in GLUTag cells (DPP4 [2]; 10 uM antagonist, 2 hours): did not significantly affect
IC50 (LPAR1 [1]; in cells, read-out: IC50 in cells for LPAR1): ~100 nM
concentration up to which no activity with LPAR2 (LPAR2; no activity up to): > 10,000 nM
concentration up to which no reported activity on LPAR2 (LPAR2; no reported activity up to): > 10 µM
concentration up to which no activity with LPAR3 (LPAR3; no activity up to): > 10,000 nM
concentration up to which no reported activity on LPAR3 (LPAR3; no reported activity up to): > 10 µM
effect of antagonist on DPP4 activity in mouse serum (DPP4 [3]; 30 mg/kg by gavage): did not significantly affect; also recorded: lack of effect; also recorded: not significantly affected
effect of 18:1-LPA combined with antagonist on DPP4 activity in mouse serum (DPP4 [3]; antagonist 30 mg/kg by gavage then 50 mg/kg 18:1-LPA): did not affect
IC50 (LPAR1 [4]): 59 to 262 nM

CCCCCCCCCCCCCCCC(=O)OCC(O)COP(=O)(O)O (stereo not shown) [1-palmitoyl-2-hydroxy-LPA]
decrease in GLP-1 secretion / level caused by LPA (fraction) (GLUTag cells; 2.5 μM LPA): over 2/3

lysophosphatidic acid [LPA]
effect of LPA on circulating GLP-1 levels (words) (GLP-1): suppressed
fall in serum GLP-1 levels after LPA injection (GLP-1; vehicle (10% DMSO)-treated mice, 50 mg/kg 18:1-LPA i.p., 30 min, serum (Example 6)): > 50%
effect of LPA on DPP4 activity in mouse serum (DPP4 [5]): lack of effect; also recorded: not significantly affected
insulin secretion in mice injected with LPA (insulin secretion): impaired

CCCCCCCC/C=C\CCCCCCCC(=O)OC[C@@H](O)COP(=O)(O)O [18:1-LPA, 1-oleoyl-2-hydroxy-LPA]
decrease in GLP-1 secretion / level caused by LPA (fraction) (GLUTag cells; 2.5 μM LPA): > 2/3
decrease in GLP-1 secretion / level caused by LPA (fraction) (GLUTag cells; 2.5 μM LPA, listed as 1-oleoyl-2-hydroxy-LPA): over 2/3
decrease in plasma GLP-1 levels after LPA injection (GLP-1): ~60%
decrease in plasma GLP-1 levels after LPA injection (GLP-1; listed as 1-18:1-LPA): over 60%
effect of LPA on circulating GLP-1 levels (words) (GLP-1): decreased
effect of LPA on circulating GLP-1 levels (words) (GLP-1; listed as 1-oleoyl-2-hydroxy-LPA): decreases circulating GLP-1 levels
effect of LPA on DPP4 activity in GLUTag cells (DPP4 [2]; 2.5 uM 18:1-LPA): did not significantly reduce
effect of LPA on DPP4 activity in mouse serum (DPP4 [5]): did not affect

CCCCCCCCCCCCCCCCCC(=O)OCC(O)COP(=O)(O)O (stereo not shown) [1-stearoyl-2-hydroxy-LPA]
decrease in GLP-1 secretion / level caused by LPA (fraction) (GLUTag cells; 2.5 μM LPA): over 2/3

Cc1noc(-c2ccc(-c3ccc(C4(C(=O)O)CC4)cc3)cc2)c1NC(=O)O[C@H](C)c1ccccc1 [BMS-986020]
effect of LPAR antagonist alone on GLP-1 levels (GLUTag cells): no significant effect
rescue of LPA-inhibited GLP-1 secretion by LPAR antagonist (GLUTag cells): partially rescued
rescue of LPA-inhibited GLP-1 secretion by LPAR antagonist (GLUTag cells; listed as BMS986020): did significantly restore GLP-1 secretion
rescue of the fall in blood GLP-1 levels caused by LPA (GLP-1; [6]): did not significantly rescue
blood GLP-1 with antagonist alone versus vehicles (GLP-1; antagonist 30 mg/kg by gavage): indistinguishable from mice treated only with the vehicles
Ki (LPAR1 [1]): < 300 nM
IC50 (LPAR1 [1]; read-out: IC50 for LPAR1): < 300 nM

CCCCC/C=C\C/C=C\CCCCCCCC(=O)OCC(O)COP(=O)(O)O (stereo not shown) [18:2-LPA, 1-linoleoyl-2-hydroxy-LPA]
effect of LPA on GLP-1 secretion (GLUTag cells; 2.5 μM LPA): decreases GLP-1 secretion
decrease in GLP-1 secretion / level caused by LPA (fraction) (GLUTag cells; 2.5 μM LPA): > 2/3
decrease in GLP-1 secretion / level caused by LPA (fraction) (GLUTag cells; 2.5 μM LPA, listed as 1-linoleoyl-2-hydroxy-LPA): over 2/3
